Among the data in patent US20240034736A1, “HSD17B13 INHIBITORS AND USES THEREOF” (FL2022-001, Inc., priority 2020, published 2024) are IC50 and inhibition values, retold here.

Some results are limits rather than exact numbers.

Chain of Recombinant human HSD17B13 enzyme (Q7Z5P4 20-300): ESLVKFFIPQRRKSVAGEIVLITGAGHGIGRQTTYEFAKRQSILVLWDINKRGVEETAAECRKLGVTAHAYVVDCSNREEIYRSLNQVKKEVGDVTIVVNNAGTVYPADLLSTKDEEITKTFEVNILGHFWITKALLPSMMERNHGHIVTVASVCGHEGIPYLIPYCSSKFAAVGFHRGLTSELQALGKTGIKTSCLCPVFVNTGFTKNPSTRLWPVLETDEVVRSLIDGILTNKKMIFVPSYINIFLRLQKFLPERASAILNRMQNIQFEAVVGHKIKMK

The first assay deals with Recombinant human HSD17B13 enzyme (Homo sapiens (Human), UniProt Q7Z5P4). Nature of the assay: HSD17b13 NAD(P)H-Glo Biochemical Assay. The following applies: 50 uM estradiol, 1 mM NAD+; read-out: HSD17β13 IC50. The method, boiled down:
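Luminescent NAD(P)H-Glo detection (1 h, RT) quantified cofactor reduction after a 3 h, 37° C reaction of human HSD17B13 with estradiol (50 uM final) and NAD+ (1 mM final). Compounds were first pre-incubated 20 min at RT with enzyme in Tris pH 7.4 buffer containing Tween-20 and BSA.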
In the case of `CS(=O)(=O)N1CCN(c2cc3cnn(-c4cc(O)c(F)c(Cl)c4)c3cn2)CC1` [Compound 19.21, 3-Chloro-2-fluoro-5-(5-(4-(methylsulfonyl)piperazin-1-yl)-1H-pyrazolo[3,4-c]pyridine-1-yl)phenol], the IC50 – broadly, the concentration that gives 50% inhibition – was in the range of 0.1 to 1 µM.

On to `CS(=O)(=O)N1CCN(c2cc3cn(-c4cc(O)c(F)c(Cl)c4)nc3cn2)CC1` [Compound 19.22, 3-Chloro-2-fluoro-5-(5-(4-(methylsulfonyl)piperazin-1-yl)-2H-pyrazolo[3,4-c]pyridine-2-yl)phenol], for which the IC50 was 0.1 to 1 µM. On the same count and under the same terms, under `Cc1cc(-n2ncc3cc(N4CCN(S(C)(=O)=O)CC4)ncc32)cc(O)c1F` [Compound 19.23, 2-Fluoro-3-methyl-5-(5-(4-(methylsulfonyl)piperazin-1-yl)-1H-pyrazolo[3,4-c]pyridine-1-yl)phenol] stands 1 to 30 µM. The same measure, in the same setting: under `Cc1cc(-n2cc3cc(N4CCN(S(C)(=O)=O)CC4)ncc3n2)cc(O)c1F` [Compound 19.24, 2-Fluoro-3-methyl-5-(5-(4-(methylsulfonyl)piperazin-1-yl)-2H-pyrazolo[3,4-c]pyridine-2-yl)phenol] stands 1 to 30 µM; under `CS(=O)(=O)N1CCN(c2cc3cnn(-c4ccc(C(F)(F)F)c(O)c4F)c3cn2)CC1` [Compound 19.25, 2-Fluoro-3-(5-(4-(methylsulfonyl)piperazin-1-yl)-1H-pyrazolo[3,4-c]pyridine-1-yl)-6-(trifluoromethyl)phenol], 1 to 30 µM; under `CS(=O)(=O)N1CCN(c2cc3cn(-c4ccc(C(F)(F)F)c(O)c4F)nc3cn2)CC1` [Compound 19.26, 2-Fluoro-3-(5-(4-(methylsulfonyl)piperazin-1-yl)-2H-pyrazolo[3,4-c]pyridine-2-yl)-6-(trifluoromethyl)phenol], 1 to 30 µM. Same read-out and setting: then `CS(=O)(=O)N1CCN(c2cc3cnn(-c4ccc(Cl)c(O)c4F)c3cn2)CC1` [Compound 19.27, 6-Chloro-2-fluoro-3-(5-(4-(methylsulfonyl)piperazin-1-yl)-1H-pyrazolo[3,4-c]pyridine-1-yl)phenol], with 1 to 30 µM. As to `Cc1cc(-n2ncc3cc(N4CCN(S(C)(=O)=O)CC4)ncc32)c(F)c(O)c1F` [Compound 19.28, 2,6-Difluoro-3-methyl-5-(5-(4-(methylsulfonyl)piperazin-1-yl)-1H-pyrazolo[3,4-c]pyridine-1-yl)phenol], the IC50 was 1 to 30 µM.

Take `CS(=O)(=O)N1CCN(c2cc3cnn(-c4cc(F)c(F)c(O)c4F)c3cn2)CC1` [Compound 19.29, 2,3,6-Trifluoro-5-(5-(4-(methylsulfonyl)piperazin-1-yl)-1H-pyrazolo[3,4-c]pyridine-1-yl)phenol]: the IC50 lay within 0.1 to 1 µM. Consider `CS(=O)(=O)N1CCN(c2cc3cn(-c4cc(F)c(F)c(O)c4F)nc3cn2)CC1` [Compound 19.30, 2,3,6-Trifluoro-5-(5-(4-(methylsulfonyl)piperazin-1-yl)-2H-pyrazolo[3,4-c]pyridine-2-yl)phenol], for which the IC50 was in the range of 0.1 to 1 µM. Consider `CS(=O)(=O)N1CCN(c2cc3cnn(-c4ncc(Cl)c(O)c4F)c3cn2)CC1` [Compound 19.31, 5-Chloro-3-fluoro-2-(5-(4-(methylsulfonyl)piperazin-1-yl)-1H-pyrazolo[3,4-c]pyridine-1-yl)pyridine-4-ol], for which the IC50 was in the range of 1 to 30 µM.

`CC1(C)COCCN1c1cc2cnn(-c3cc(O)c(F)c(C(F)(F)F)c3)c2cn1` [Compound 19.32, 5-(5-(3,3-Dimethylmorpholino)-1H-pyrazolo[3,4-c]pyridine-1-yl)-2-fluoro-3-(trifluoromethyl)phenol]: the IC50 lay in the range of 0.1 to 1 µM. Still for that read-out and setting: then `CC1CN(S(C)(=O)=O)CCN1c1cc2cnn(-c3cc(O)c(F)c(C(F)(F)F)c3)c2cn1` (centres unmarked) [Compound 19.33, 2-Fluoro-5-(5-(2-methyl-4-(methylsulfonyl)piperazin-1-yl)-1H-pyrazolo[3,4-c]pyridine-1-yl)-3-(trifluoromethyl)phenol], with 0.1 to 1 µM. As for `CC1CN(S(C)(=O)=O)CCN1c1cc2cn(-c3cc(O)c(F)c(C(F)(F)F)c3)nc2cn1` (centres unmarked) [Compound 19.34, 2-Fluoro-5-(5-(2-methyl-4-(methylsulfonyl)piperazin-1-yl)-2H-pyrazolo[3,4-c]pyridine-2-yl)-3-(trifluoromethyl)phenol], the IC50 lay in the range of 0.1 to 1 µM. As for `CS(=O)(=O)N1CCN(c2cc3cnn(-c4cc(C(F)(F)F)c(F)c(O)c4F)c3cn2)CC1` [Compound 19.38, 2,6-Difluoro-3-(5-(4-(methylsulfonyl)piperazin-1-yl)-1H-pyrazolo[3,4-c]pyridine-1-yl)-5-(trifluoromethyl)phenol], the IC50 was in the range of 0.1 to 1 µM. Same read-out and setting: then `CS(=O)(=O)N1CCN(c2cc3cnn(-c4cccc(O)c4C#N)c3cn2)CC1` [Compound 19.39, 2-Hydroxy-6-(5-(4-(methylsulfonyl)piperazin-1-yl)-1H-pyrazolo[3,4-c]pyridine-1-yl)benzonitrile], with 1 to 30 µM; and `CS(=O)(=O)N1CCN(c2cc3cnn(-c4cc(O)ccc4C#N)c3cn2)CC1` [Compound 19.41, 4-Hydroxy-2-(5-(4-(methylsulfonyl)piperazin-1-yl)-1H-pyrazolo[3,4-c]pyridine-1-yl)benzonitrile], with 1 to 30 µM. On to `Cc1ccc(-n2ncc3cc(N4CCN(S(C)(=O)=O)CC4)ncc32)c(F)c1O` [Compound 19.42, 2-Fluoro-6-methyl-3-(5-(4-(methylsulfonyl)piperazin-1-yl)-1H-pyrazolo[3,4-c]pyridine-1-yl)phenol], for which the IC50 is 1 to 30 µM. The same measure, in the same setting: under `Cc1nn(-c2cc(C(F)(F)F)c(F)c(O)c2F)c2cnc(N3CCOCC34CC4)cc12` [Compound 19.44, 2,6-Difluoro-3-(3-methyl-5-(7-oxa-4-azaspiro[2.5]octan-4-yl)-1H-pyrazolo[3,4-c]pyridine-1-yl)-5-(trifluoromethyl)phenol] stands less than 0.1 µM. Still for that read-out and setting: then `Cc1nn(-c2cc(C(F)(F)F)c(F)c(O)c2F)c2cnc(N3CCN(S(C)(=O)=O)CC3)cc12` [Compound 19.45, 2,6-Difluoro-3-(3-methyl-5-(4-(methylsulfonyl)piperazin-1-yl)-1H-pyrazolo[3,4-c]pyridine-1-yl)-5-(trifluoromethyl)phenol], with 0.1 to 1 µM; and `CS(=O)(=O)N1CCN(c2cc3cn(-c4cc(O)c(F)c(C(F)(F)F)c4)nc3cc2Cl)CC1` [Compound 19.46, 5-(6-Chloro-5-(4-(methylsulfonyl)piperazin-1-yl)-2H-indazol-2-yl)-2-fluoro-3-(trifluoromethyl)phenol], with less than 0.1 µM. On the same count and under the same terms, then `Cc1nn(-c2cc(C(F)(F)F)c(F)c(O)c2F)c2cnc(N(C)C3CCOCC3)cc12` [Compound 19.47, 2,6-Difluoro-3-(3-methyl-5-(methyl(tetrahydro-2H-pyran-4-yl)amino)-1H-pyrazolo[3,4-c]pyridin-1-yl)-5-(trifluoromethyl)phenol], with less than 0.1 µM; and `Cc1nn(-c2cc(C(F)(F)F)c(F)c(O)c2F)c2ccc(N3CCOCC34CC4)nc12` [Compound 19.48, 2,6-Difluoro-3-(3-methyl-5-(7-oxa-4-azaspiro[2.5]octan-4-yl)-1H-pyrazolo[4,3-b]pyridine-1-yl)-5-(trifluoromethyl)phenol], with 0.1 to 1 µM; and `Cc1nn(-c2cc(C(F)(F)F)c(F)c(O)c2F)c2ccc(N(C)C3CCOCC3)nc12` [Compound 19.49, 2,6-Difluoro-3-(3-methyl-5-(methyl(tetrahydro-2H-pyran-4-yl)amino)-1H-pyrazolo[4,3-b]pyridine-1-yl)-5-(trifluoromethyl)phenol], with less than 0.1 µM. For the compound `Cc1nn(-c2cc(C(F)(F)F)c(F)c(O)c2F)c2cc(F)c(N3CCOCC34CC4)nc12` [Compound 19.50, 2,6-Difluoro-3-(6-fluoro-3-methyl-5-(7-oxa-4-azaspiro[2.5]octan-4-yl)-1H-pyrazolo[4,3-b]pyridine-1-yl)-5-(trifluoromethyl)phenol], the IC50 is less than 0.1 µM.

Turning to `COC1CCN(c2cc3c(C)nn(-c4cc(C(F)(F)F)c(F)c(O)c4F)c3cn2)CC1` [Compound 19.51, 2,6-Difluoro-3-(5-(4-methoxypiperidin-1-yl)-3-methyl-1H-pyrazolo[3,4-c]pyridine-1-yl)-5-(trifluoromethyl)phenol], the 50% inhibitory concentration (IC50) is 0.1 to 1 µM.

On to `COC1CCN(c2cc3c(C)nn(-c4cc(C(F)(F)F)c(F)c(O)c4F)c3cn2)C2(CC2)C1` (centres unmarked) [Compound 19.52, 2,6-Difluoro-3-(5-(7-methoxy-4-azaspiro[2.5]octan-4-yl)-3-methyl-1H-pyrazolo[3,4-c]pyridine-1-yl)-5-(trifluoromethyl)phenol], for which the IC50 is less than 0.1 µM.

Still in this assay, the particulars now being: read-out: HSD17β13 inhibition at 30 uM.
For `CS(=O)(=O)N1CCN(c2cc3cn(-c4cc(O)cc(C#N)c4)nc3cn2)CC1` [Compound 19.35, 3-Hydroxy-5-(5-(4-(methylsulfonyl)piperazin-1-yl)-2H-pyrazolo[3,4-c]pyridine-2-yl)benzonitrile], the inhibition (in general, the drop in the measured response relative to a control, in per cent) at 30 µM was found to be 49%. On to `CS(=O)(=O)N1CCN(c2cc3cnn(-c4ccc(C#N)c(O)c4)c3cn2)CC1` [Compound 19.36, 2-Hydroxy-4-(5-(4-(methylsulfonyl)piperazin-1-yl)-1H-pyrazolo[3,4-c]pyridine-1-yl)benzonitrile], for which the inhibition at 30 µM came out at 40%. On the same count and under the same terms, then `CS(=O)(=O)N1CCN(c2cc3cn(-c4ccc(C#N)c(O)c4)nc3cn2)CC1` [Compound 19.37, 2-Hydroxy-4-(5-(4-(methylsulfonyl)piperazin-1-yl)-2H-pyrazolo[3,4-c]pyridine-2-yl)benzonitrile], with 43%; and `CS(=O)(=O)N1CCN(c2cc3cn(-c4cccc(O)c4C#N)nc3cn2)CC1` [Compound 19.40, 2-Hydroxy-6-(5-(4-(methylsulfonyl)piperazin-1-yl)-2H-pyrazolo[3,4-c]pyridine-2-yl)benzonitrile], with 39%; and `Cc1ccc(O)c(F)c1-n1ncc2cc(N3CCN(S(C)(=O)=O)CC3)ncc21` [Compound 19.43, 2-Fluoro-4-methyl-3-(5-(4-(methylsulfonyl)piperazin-1-yl)-1H-pyrazolo[3,4-c]pyridine-1-yl)phenol], with 45%.
